Reference: US11357752B2, “Carolacton and derivatives thereof for use in the treatment of cell proliferation disorders” (Helmholtz-Zentrum für Infektionsforschung GmbH, priority 2017, dated 2022)
Values after ≈ are worked out from the molar mass of the structure shown. Read-outs that look alike come from different tables or passages of the source.

Columns and labels:
hsMTHFD1 DC301 = molecular target: T1, hsMTHFD1 DC301 (Homo sapiens, UniProt P11586); assay: FoID dehydrogenase (DH) enzyme assay; assay type: biochemical
T1 construct: We therefore expressed and purified hsMTHFD2 and hsMTHFD1_DC to test them biochemically; His-tag (vector pHis-TEV); made in house; host or cells: E. coli BL21 (DE3)
T1 sequence (P11586 2-291 limits assumed): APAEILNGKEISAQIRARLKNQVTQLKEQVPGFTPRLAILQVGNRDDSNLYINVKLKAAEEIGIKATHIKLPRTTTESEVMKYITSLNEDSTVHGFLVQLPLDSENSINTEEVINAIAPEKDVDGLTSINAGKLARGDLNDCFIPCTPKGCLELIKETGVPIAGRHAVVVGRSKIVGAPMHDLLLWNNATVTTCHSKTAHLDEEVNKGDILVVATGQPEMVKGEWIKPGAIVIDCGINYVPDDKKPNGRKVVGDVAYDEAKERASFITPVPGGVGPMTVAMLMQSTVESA
Experimental: (§1) (6R,S)-5,10-Methylene-5,6,7,8-tetrahydrofolic acid ((6R,S)-5,10-CH2-THF), calcium salt and (6R,S)-5,10-Methenyl-5,6,7,8-tetrahydrofolic acid ((6R,S)-5,10-CH=THF) chloride were purchased from Schircks Laboratories (Bauma, Switzerland) and were used as substrates for FoID dehydrogenase and cyclohydrolase enzyme assays, respectively. Only the R-isomer, which accounts for 50% of (6R,S)-5,10-CH2-THF and (6R,S)-5,10-CH=THF, respectively, is used by the enzyme. (6R,S)-5,10-CH2-THF was dissolved in N2-spargeled basic buffer (50 mM Tris-HCl (pH 8.0), 100 mM β-mercaptoethanol) as described by Sah and Varshney, 2015a (6R,S)-5,10-CH=THF was first dissolved in DMSO as a 100 mM stock solution.
(§2) Because FoID is a bifunctional enzyme, dehydrogenase and cyclohydrolase activities were determined for FoID enzyme kinetics, respectively. The dehydrogenase activity of FoID was assayed for its substrate 5,10-CH2-THF and cofactor NADP+ (in the case of MTHFD2, NAD+ was used as cofactor) based on monitoring the formation of 5,10-CH=THF while the cyclohydrolase activity of FoID was determined for its substrate 5,10-CH=THF by monitoring the hydrolysis of 5,10-CH2-THF. The enzyme kinetics for the dehydrogenase activity of all FoIDs except hsMTHFD1_DC were determined at 30° C. in 50 mM Tris-HCl (pH 7.5), 30 mM β-mercaptoethanol. The hsMTHFD1_DC dehydrogenase activity was measured in 25 mM MOPS (pH 7.3), 30 mM β-mercaptoethanol at 30° C. To measure the enzyme kinetics constants for 5,10-CH2-THF, for example in the case of ecFoID, the NADP concentration was fixed at 1 mM and the concentration of 5,10-CH2-THF varied from 5 μM to 1,500 μM (R-isomer). Similarly, to measure the kinetic constants of ecFoID for NADP+, the concentration of 5,10-CH2-THF (R-isomer) was fixed at 1 mM and the concentration of NADP+ varied from 10 μM to 1,500 μM. For different FoIDs, the varied concentration range of substrates could be different. The 50 μL reactions of dehydrogenase assays were initiated by adding appropriate amounts enzyme (4 nM ecFoID, 4 nM spFoID, 15 nM hsMTHFD1_DC, 20 nM hsMTHFD2, 20 nM G8S, 20 nM Q98H, 10 nM K54N, 200 nM ΔK54R55 in the corresponding assays) and terminated with 50 μL 1 M HCl after 2 min incubation at 30° C. To monitor the formation of 5,10-CH=THF, the absorbance of the reaction mixture was monitored at 350 nm in micro UV cuvettes (BRAND, Essex, Connecticut, USA). The concentration of 5,10-CH=THF produced in the reaction was determined using an extinction co-efficient of 0.0249 μM-1 cm-1. Cyclohydrolase activity for each FoID was assayed in the same buffer as dehydrogenase activity at 30° C. but for 30 s. The concentration of FoID used in each assay was 5 nM of ecFoID, spFoID and hsMTHFD1_DC, respectively, and 2 nM of hsMTHFD2. The consumption of 5,10-CH=THF was measured by recording the absorbance of the reactions at 355 nm using the TECAN Infinite 200 PRO equipped with a monochromator. To measure the enzyme kinetic constants, different concentrations of 5,10-CH=THF (varied from […]) were used in […] reaction mixtures. The inhibition constants (Ki) of carolacton on FoID were determined by measuring the apparent Km values when adding certain amounts of carolacton to the enzyme reactions. For ecFoID, 10 nM carolacton was added in the dehydrogenase assay and 50 nM carolacton was used in the cyclohydrolase assay. For spFoID, 25 nM carolacton was added in both dehydrogenase assay and cyclohydrolase assay. For hsMTHFD1_DC, 30 nM carolacton was added in the dehydrogenase assay and 10 nM in the cyclohydrolase assay. […] To compare the inhibition effects of carolacton between the different FoIDs, the half maximal inhibitory concentration (IC50) of carolacton on the same amount of enzyme was determined for FoIDs involved in this study. The enzyme concentration used to determine dehydrogenase activity IC50 was 10 nM, and the enzyme used for cyclohydrolase IC50 measurements was 5 nM. All enzyme kinetics measurements were performed as independent triplicates. […]

hsMTHFD2 = molecular target: T2, hsMTHFD2 (Homo sapiens, UniProt P13995); assay: FoID dehydrogenase (DH) enzyme assay; assay type: biochemical
T2 construct: His-tag (vector pHis-TEV); made in house; host or cells: E. coli BL21 (DE3)
T2 sequence (P13995 36-350): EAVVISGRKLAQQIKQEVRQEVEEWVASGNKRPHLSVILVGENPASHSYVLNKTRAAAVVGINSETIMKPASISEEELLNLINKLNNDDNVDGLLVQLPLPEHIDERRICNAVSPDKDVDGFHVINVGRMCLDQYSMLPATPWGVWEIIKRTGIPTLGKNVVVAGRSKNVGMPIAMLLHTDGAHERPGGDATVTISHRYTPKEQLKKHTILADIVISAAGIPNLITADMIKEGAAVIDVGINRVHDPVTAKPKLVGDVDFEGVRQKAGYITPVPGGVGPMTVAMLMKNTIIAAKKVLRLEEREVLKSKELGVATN
Experimental: as §1, §2

L-929 mouse fibroblasts = assay: Cell proliferation assay with mouse fibroblasts (MTT); assay type: cell-based
Experimental: L-929 mouse fibroblasts from DSMZ cultivated at 37° C. and 10% CO2 in DME medium (high glucose) supplemented with 10% fetal calf serum. Cell culture reagents came from Life Technologies Inc. (GIBCO BRL). […] of serial dilutions of the test compound were given to […] of suspended cells (50,000/mL) in wells of 96-well plates. After 5 days of incubation growth inhibition (IC50) was determined using an MTT assay (Mosman et al., 1983).

[1] = 10 nM enzyme, read-out: IC50, carolacton inhibition on DH activity
[2] = vs 5,10-CH2-THF, read-out: Ki (5,10-CH2—THF), carolacton inhibition on DH activity

`CO[C@H](CC(=O)O)[C@@H](C)C(=O)[C@H](C)/C=C(\C)[C@H]1OC(=O)[C@H](O)[C@H](O)/C=C/[C@H](C)CCC[C@@H]1C` [Carolacton, carolacton] showed an IC50 (hsMTHFD1 DC301; [1]) of 38 nM, a Ki (hsMTHFD1 DC301; [2]) of 5.93 nM and a Ki (hsMTHFD1 DC301; vs cofactor NADP+, read-out: Ki (NADP^+), carolacton inhibition on DH activity) of 58.7 nM. For the same compound, the IC50 (hsMTHFD2; [1]) was 6.5 nM, the Ki (hsMTHFD2; cofactor is NAD in the case of hsMTHFD2, read-out: Ki (NADP^+)^a, carolacton inhibition on DH activity) was 16.7 nM and the Ki (hsMTHFD2; [2]) was 6.42 nM. For the same compound, the “inhibition of growth of L929 cells reached” value (L-929 mouse fibroblasts; L929 cells cultivated for 5 days) was at most 50% and the IC50 (L-929 mouse fibroblasts; Mus musculus, L929, 120 h, read-out: adapted IC50, inhibition of mouse fibroblast proliferation) was 3.5 µg/mL (≈ 7.47 µM).
